Laboratory results as given in article PMC6332024, “Molecular Cloning and Characterization of a Xanthone Prenyltransferase from Hypericum calycinum Cell Cultures” (Molecules, 2015).

Test system: T1, HcPT
T1 construct: pFastBac1 baculovirus, microsomes of Sf9 insect cells
Assay: HPLC-DAD prenylation assay with Sf9 microsomes, Lineweaver-Burk
Type: biochemical, Hypericum calycinum
Details: 4 mM MgCl2, 0.5 mM dithiothreitol, 50 mM potassium phosphate pH 7.5, 40 °C, 30 min

Row | Km (500 µM 1,3,6,7-tetrahydroxyxanthone constant) | Km (400 µM DMAPP constant) | SMILES
1 | 87 ± 5 µM |  | CC(C)=CCOP(=O)(O)OP(=O)(O)O [DMAPP, dimethylallyl diphosphate]
2 |  | 211 ± 16 µM | O=c1c2cc(O)c(O)cc2oc2cc(O)cc(O)c12 [1,3,6,7-THX, 1,3,6,7-tetrahydroxyxanthone]
